For test [1], the system named is Rat Paw Edema. Kind of test: Rat paw edema assay (carrageenan). The format is in vivo, Male Sprague-Dawley rats. To be noted: 3 h, Table IV, po. How it is done:
Male Sprague-Dawley rats (150-200 g) are fasted overnight and are given, po, either vehicle (1% methocel or 5% Tween 80) or a test compound. One hr later, a line is drawn using a permanent marker at the level above the ankle in one hind paw to define the area of the paw to be monitored. The paw volume (V0) is measured using a plethysmometer (Ugo-Basile, Italy) based on the principle of water displacement. […] The animals are sacrificed by CO2 asphyxiation and the absence or presence of stomach lesions scored. Data is compared with the vehicle-control values and percent inhibition calculated. All treatment groups are coded to eliminate observer bias.

Test [2] deals with T1, COX-1 (Homo sapiens, UniProt P23219). Kind of test: biochemical. The format is biochemical. Conditions: Table III; U937. How it is done: Compounds are tested as inhibitors of cyclooxygenase activity in whole cell cyclooxygenase assays. Both of these assays measure prostaglandin E2 synthesis in response to arachidonic acid, using a radioimmunoassay. Cells used for these assays are human osteosarcoma 143 cells (which specifically express COX-2) and human U-937 cells (which specifically express COX-1). In these assays, 100% activity is defined as the difference between prostaglandin E2 synthesis in the absence and presence of arachidonate.
U 937 cells are pelleted by centrifugation at 500×g for 5 min and washed once with phosphate-buffered saline and repelleted. Cells are resuspended in homogenization buffer consisting of 0.1 M Tris-HCl, pH 7.4, 10 mM EDTA, 2 μg/ml leupeptin, 2 μg/ml soybean trypsin inhibitor, 2 μg/ml aprotinin and 1 mM phenyl methyl sulfonyl fluoride. The cell suspension is sonicated 4 times for 10 sec and is centrifuged at 10,000×g for 10 min at 4° C. The supernatant is centrifuged at 100,000×g for 1 hr at 4 ° C. The 100,000×g microsomal pellet is resuspended in 0.1 M Tris-HCl, pH 7.4, 10 mM EDTA to approximately 7 mg protein/ml and stored at -80° C.
Microsomal preparations are thawed immediately prior to use, subjected to a brief sonication, and then diluted to a protein concentration of 125 μg/ml in 0.1 M Tris-HCl buffer, pH 7.4 containing 10 mM EDTA, 0.5 mM phenol, 1 mM reduced glutathione and 1 μM hematin. Assays are performed in duplicate in a final volume of 250 μl. Initially, 5 μd of DMSO vehicle or drug in DMSO are added to 20 μl of 0.1 M Tris-HCl buffer, pH 7.4 containing 10 mM EDTA in wells of a 96-deepwell polypropylene titre plate. 200 μl of the microsomal preparation are then added and pre-incubated for 15 min at room temperature before addition of 25 μl of […] in 0.1 M Tris-HCl and 10 mM EDTA, pH 7.4. […] Cyclooxygenase activity is defined as the difference between PGE2 levels in samples incubated in the presence of arachidonic acid and ethanol vehicle.

Test [3] has as its target T1, COX-1. Kind of test: Human whole blood assay, COX-1 (clotting-induced TxB2 production). Format: cell-based. Conditions: Table III, read-out: COX-1 (IC50) HWB. An excerpt:
(§1) As well, platelets in whole blood contain a large amount of the COX-1 enzyme. Immediately following blood clotting, platelets are activated through a thrombin-mediated mechanism. […] Therefore, the degree of selectivity by the test compound can be determined by measuring the levels of PGE2 after LPS induction (COX-2) and TxB2 following blood clotting (COX-1) in the same assay.
B. COX-1 (Clotting-induced TxB2 production)
Fresh blood is collected into vacutainers containing no anticoagulants. Aliquots of 500 μL are immediately transferred to siliconized microcentrifuge tubes preloaded with 2 μL of either DMSO or a test compound at final concentrations varying from 10 nM to 30 μM. The tubes are vortexed and incubated at 37° C. for 1 hour to allow blood to clot. At the end of incubation, serum is obtained by centrifugation (12,000×g for 5 min.). A 100 μL aliquot of serum is mixed with 400 μL of methanol for protein precipitation.

Test [4] has as its target T2, COX-2 (Homo sapiens, UniProt P35354).
T2 sequence (P35354 18-604): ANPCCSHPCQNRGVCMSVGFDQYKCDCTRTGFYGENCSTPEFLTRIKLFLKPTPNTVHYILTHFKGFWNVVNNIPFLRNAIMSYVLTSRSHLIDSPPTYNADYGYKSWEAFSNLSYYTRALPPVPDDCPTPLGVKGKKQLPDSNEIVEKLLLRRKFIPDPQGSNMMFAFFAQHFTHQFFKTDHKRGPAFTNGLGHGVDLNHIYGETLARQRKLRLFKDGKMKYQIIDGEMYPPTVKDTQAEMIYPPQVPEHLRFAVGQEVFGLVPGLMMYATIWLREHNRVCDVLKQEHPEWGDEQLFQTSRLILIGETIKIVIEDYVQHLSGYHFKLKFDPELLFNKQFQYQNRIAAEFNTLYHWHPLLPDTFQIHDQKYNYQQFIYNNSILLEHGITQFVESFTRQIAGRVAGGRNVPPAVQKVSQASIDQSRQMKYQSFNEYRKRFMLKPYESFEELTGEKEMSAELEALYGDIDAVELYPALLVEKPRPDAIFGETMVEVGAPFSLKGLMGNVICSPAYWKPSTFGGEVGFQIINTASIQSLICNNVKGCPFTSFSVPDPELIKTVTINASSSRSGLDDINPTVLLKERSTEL
Kind of test: biochemical. To be noted: Table IV; purified human COX-2; read-out: COX-2 (IC50, μM) TMPD. The procedure: Assay of the activity of purified human COX-2
The assay mixture (180 μL) contains 100 mM sodium phosphate, pH 6.5, 2 mM genapol X-100, 1 μM hematin, 1 mg/ml gelatin, 80-100 units of purified enzyme (One unit of enzyme is defined as the amount of enzyme required to produce an O.D. change of 0.001/min at 610 nm) and 4 μL of the test compound in DMSO. The mixture is pre-incubated at room temperature (22° C.) for 15 minutes prior to initiation of the enzymatic reaction by the addition of 20 μL of a sonicated solution of 1 mM arachidonic acid (AA) and 1 mM TMPD in assay buffer (without enzyme or hematin). The enzymatic activity is measured by estimation of the initial velocity of TMPD oxidation over the first 36 sec of the reaction. […] IC50 values are derived from 4-parameter least squares non-linear regression analysis of the log-dose vs % inhibition plot.

For test [5], the target named is T2, COX-2. In words: cell-based. To be noted: Table IV; CHO[hCOX-2] cells, 10 μM AA. The procedure:
Chinese hamster ovary (CHO) cell lines which have been stably transfected with an eukaryotic expression vector pCDNAIII containing either the human COX-1 or COX-2 cDNA's are used for the assay. These cell lines are referred to as CHO [hCOX-1] and CHO [hCOX-2], respectively. […] Cells (0.3×10^6 cells in 200 μl) are preincubated with 3 μl of the test drug or DMSO vehicle for 15 min at 37° C. […] Cells are then challenged in the presence or absence of drug with the AA/HBSS solution to yield a final concentration of 0.5 μM AA in the CHO[hCOX-1] assay and a final concentration of 10 μM AA in the CHO[hCOX-2] assay. […] The samples are centrifuged at 300×g at 4° C. for 10 min, and an aliquot of the clarified supernatant is appropriately diluted for the determination of PGE2 levels using an enzyme-linked immunoassay for PGE2 (Correlate PGE2 enzyme immunoassay kit, Assay Designs, Inc.). Cyclooxygenase activity in the absence of test compounds is determined as the difference in PGE2 levels of cells challenged with arachidonic acid versus the PGE2 levels in cells mock-challenged with ethanol vehicle. Inhibition of PGE2 synthesis by test compounds is calculated as a percentage of the activity in the presence of drug versus the activity in the positive control samples.

The target of test [6] is T2, COX-2. Kind of test: cell-based. Conditions: Table IV; human whole blood, LPS-induced PGE2; read-out: COX-2 (IC50, μM) HWB.
Text: as §1
A. COX-2 (LPS-induced PGF, production)
Fresh blood is collected in heparinized tubes by venipuncture from both male and female volunteers. The subjects have no apparent inflammatory conditions and have not taken any NSAIDs for at least 7 days prior to blood collection. Plasma is immediately obtained from a 2 mL blood aliquot to use as blank (basal levels of PGE2).

T1 sequence (P23219 24-599): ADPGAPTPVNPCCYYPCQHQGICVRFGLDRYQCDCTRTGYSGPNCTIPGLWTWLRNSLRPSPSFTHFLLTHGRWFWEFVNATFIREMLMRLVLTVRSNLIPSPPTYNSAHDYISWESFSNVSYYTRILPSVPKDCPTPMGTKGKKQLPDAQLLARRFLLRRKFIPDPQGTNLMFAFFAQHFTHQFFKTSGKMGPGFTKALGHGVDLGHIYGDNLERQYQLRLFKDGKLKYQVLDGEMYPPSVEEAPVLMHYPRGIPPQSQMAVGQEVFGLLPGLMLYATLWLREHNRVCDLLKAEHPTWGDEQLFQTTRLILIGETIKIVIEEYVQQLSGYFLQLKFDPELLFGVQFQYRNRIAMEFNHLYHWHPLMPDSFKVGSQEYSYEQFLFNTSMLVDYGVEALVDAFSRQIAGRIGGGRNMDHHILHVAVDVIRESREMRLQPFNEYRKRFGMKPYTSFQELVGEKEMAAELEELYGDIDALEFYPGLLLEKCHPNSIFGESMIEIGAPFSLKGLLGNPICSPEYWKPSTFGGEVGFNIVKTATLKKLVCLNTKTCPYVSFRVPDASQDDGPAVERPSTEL

Consider `C[C@]1(CC(F)(F)F)OC(=O)C(Oc2ccc(F)cc2)=C1c1ccc(S(C)(=O)=O)cc1` [Example 166, (5R)-3-(4-fluorophenoxy)-5-methyl-4-(4-methylsulfonyl)phenyl-5-(2,2,2-trifluoroethyl)-5H-furan-2-one], for which the ED50 in test [1] turned out to be 4.9 mg/kg.
On to `CC1(C)OC(=O)C(OC2CCCCC2)=C1c1ccc(S(C)(=O)=O)cc1` [Example 14, 3-Cyclohexyloxy-5,5-dimethyl-4-(4-(methylsulfonyl)phenyl)-5H-furan-2-one], for which the 50% inhibitory concentration (IC50) in test [2] was more than 10 µM; in test [3], 58.3 µM.
Taken in the same sequence, the figures for `CC1(C)OC(=O)C(Oc2ccc(F)c(F)c2)=C1c1ccc(S(C)(=O)=O)cc1` [Example 1, 3-(3,4-Difluorophenoxy)-5,5-dimethyl-4-(4-(methylsulfonyl)phenyl)-5H-furan-2-one] were 0.99 µM and 9.2 µM.
As to `CC1(C)OC(=O)C(Oc2cncc(Cl)c2)=C1c1ccc(S(C)(=O)=O)cc1` [Example 49, 3-(3-Chloro-5-pyridiloxy)-5,5-dimethyl-4-(4-(methylsulfonyl)phenyl)-5H-furan-2-one], the IC50 in test [4] worked out at 7.8 µM; in test [5], 0.2 µM; in test [6], 0.61 µM.
In the case of `COC1(C)OC(=O)C(Oc2ccc(F)c(F)c2)=C1c1ccc(S(C)(=O)=O)cc1` (centres unmarked) [Example 24c, 3-(3,4-Difluorophenoxy)-5-methoxy-5-methyl-4-(4-(methylsulfonyl)phenyl)-5H-furan-2-one], the results for the IC50 in test [2] and in test [3] were more than 3 µM and 25.3 µM, respectively.
With `CC1(C)OC(=O)C(Oc2cc(F)cc(F)c2)=C1c1ccc(S(C)(=O)=O)cc1` [Example 3, 3-(3,5-Difluorophenoxy)-5,5-dimethyl-4-(4-(methylsulfonyl)phenyl)-5H-furan-2-one], the IC50 in test [3] amounted to 6.1 µM.
As for `CC[C@@]1(C)OC(=O)C(Oc2ccc(F)cn2)=C1c1ccc(S(C)(=O)=O)cc1` [Example 162, (5R)-3-(5-Fluoro-2-pyridyloxy)-5-ethyl-5-methyl-4-(4-methylsulfonyl)-phenyl-5H-furan-2-one], the IC50 came to 8 µM in test [4], 0.06 µM in test [5] and 0.62 µM in test [6].

Source of the values: US5981576A, “(Methylsulfonyl)phenyl-2-(5H)-furanones as COX-2 inhibitors” (Merck Frosst Canada, Inc., priority 1998, dated 1999).
